Test results as given in US20110172296A1, “MODULATION OF TRANSFORMING GROWTH FACTOR-BETA 1 EXPRESSION” (priority 2010, published 2011).
“And” between values parts separate entries of the source, which are not always exact repeats. Identical values can stand only once. In the oligonucleotide strings, read from the 5' end, every base follows the letter of its sugar. An asterisk marks phosphorothioate; unmarked linkages are phosphodiester. Other units and linkages are bracketed, terminal groups are in braces. A string of capitals states the bases alone. e = 2'-O-(2-methoxyethyl) (MOE); [5mC] = 5-methylcytosine; d = 2'-deoxy (DNA)

Tested on: human TGF-beta1 mRNA
Assay: Antisense inhibition of human TGF-beta1 mRNA in HuVEC cells, single 10 nM dose, Lipofectamine 2000 (Example 2)
Type: cell-based
Details: for % inhibition: 10 nM oligonucleotide, HuVEC, relative to untreated control cells; for inhibition of a TGF-beta1 mRNA: threshold lists of Oligo IDs, 10 nM
Description: Antisense oligonucleotides targeted to a TGF-beta1 nucleic acid were tested for their effects on TGF-beta1 mRNA in vitro. Cultured HuVEC cells at a density of 5,000 cells per well were transfected using Lipofectamine™ 2000 reagent with 10 nM antisense oligonucleotide for 4 hours. After a recovery period of approximately 24 hours, RNA was isolated from the cells and TGF-beta1 mRNA levels were measured by quantitative real-time PCR. TGF-beta1 mRNA levels were adjusted according to total RNA content, as measured by RIBOGREEN®. Results are presented as percent inhibition of TGF-beta1, relative to untreated control cells.
The chimeric antisense oligonucleotides in Tables 1 and 2 were designed as 2-13-5 MOE gapmers. Antisense molecules with this motif targeting TGF-beta1 are unique, and represent a novel chemical structure for an ASO directed against this target. The gapmers are 20 nucleotides in length, wherein the central gap segments are comprised of thirteen 2′-deoxynucleotides and are flanked on the 5′ side by wings comprising two nucleotides each and on the 3′ side by wings comprising five nucleotides each. Each nucleotide in the 5′ wing segment and each nucleotide in the 3′ wing segment has a 2′-MOE modification. The internucleoside linkages throughout each gapmer are phosphorothioate (P═S) linkages. All cytosine residues throughout each gapmer are 5-methylcytosines. “Target start site” indicates the 5′-most nucleotide to which the gapmer is targeted. “Target stop site” indicates the 3′-most nucleotide to which the gapmer is targeted. Each gapmer listed in Table 1 is targeted to SEQ ID NO: 1 (GENBANK Accession No. NM_000660.3). Each gapmer listed in Table 2 is targeted to SEQ ID NO: 2 (GENBANK Accession No. NT 011109.15 truncated from 14103000 to […]).

[1] = gapmers targeted to SEQ ID NO: 1

Substance | % inhibition [1] [%] | inhibition of a TGF-beta1 mRNA | % inhibition (gapmers targeted to SEQ ID NO: 2) [%]
413997 (antisense eA*eA*dA*dA*dG*dT*d[5mC]*dT*dT*dT*dG*d[5mC]*dG*dG*dG*eA*eG*eG*e[5mC]*e[5mC]) [compound 413997] | 41 | – | –
413998 (antisense eG*eG*dA*dA*dA*dA*dG*dT*d[5mC]*dT*dT*dT*dG*d[5mC]*dG*eG*eG*eA*eG*eG) [compound 413998] | 13 | – | –
413999 (antisense eG*eG*d[5mC]*dT*d[5mC]*dA*dG*dG*dA*dG*dA*d[5mC]*dA*dG*dG*e[5mC]*e[5mC]*eG*eG*eG) [compound 413999] | 72 | 60% and 65% and 70% | –
414000 (antisense eA*eA*dG*dG*dG*dT*d[5mC]*dT*dA*dG*dG*dA*dT*dG*d[5mC]*eG*e[5mC]*eG*eG*eG) [compound 414000] | 75 | 60% and 65% and 70% and 75% | –
414001 (antisense e[5mC]*eA*dG*dG*dT*d[5mC]*dG*dG*dA*dG*dA*dG*dA*dG*dA*eT*e[5mC]*e[5mC]*eG*eT) [compound 414001] | 78 | 60% and 65% and 70% and 75% | –
414002 (antisense eG*eG*dT*dG*dG*dG*dT*dG*dG*dT*d[5mC]*dT*dT*dG*dA*eA*eT*eA*eG*eG) [compound 414002] | 80 | 60% and 65% and 70% and 75% and 80% | –
414003 (antisense eA*eA*dG*dG*dT*dG*dG*dG*dT*dG*dG*dT*d[5mC]*dT*dT*eG*eA*eA*eT*eA) [compound 414003] | 67 | 60% and 65% | –
414004 (antisense eA*eG*dA*dA*dG*dG*dT*dG*dG*dG*dT*dG*dG*dT*d[5mC]*eT*eT*eG*eA*eA) [compound 414004] | 70 | 60% and 65% and 70% | –
414005 (antisense e[5mC]*e[5mC]*dA*dG*dA*dA*dG*dG*dT*dG*dG*dG*dT*dG*dG*eT*e[5mC]*eT*eT*eG) [compound 414005] | 77 | 60% and 65% and 70% and 75% | –
414006 (antisense eT*eA*d[5mC]*d[5mC]*dA*dG*dA*dA*dG*dG*dT*dG*dG*dG*dT*eG*eG*eT*e[5mC]*eT) [compound 414006] | 85 | 60% and 65% and 70% and 75% and 80% and 85% | –
414007 (antisense eG*eG*dT*dA*d[5mC]*d[5mC]*dA*dG*dA*dA*dG*dG*dT*dG*dG*eG*eT*eG*eG*eT) [compound 414007] | 94 | 60% and 65% and 70% and 75% and 80% and 85% and 90% | –
414008 (antisense e[5mC]*eT*dG*dG*dT*dA*d[5mC]*d[5mC]*dA*dG*dA*dA*dG*dG*dT*eG*eG*eG*eT*eG) [compound 414008] | 89 | 60% and 65% and 70% and 75% and 80% and 85% | –
414009 (antisense eA*eT*d[5mC]*dT*dG*dG*dT*dA*d[5mC]*d[5mC]*dA*dG*dA*dA*dG*eG*eT*eG*eG*eG) [compound 414009] | 80 | 60% and 65% and 70% and 75% and 80% | –
414010 (antisense e[5mC]*eG*dA*dT*d[5mC]*dT*dG*dG*dT*dA*d[5mC]*d[5mC]*dA*dG*dA*eA*eG*eG*eT*eG) [compound 414010] | 88 | 60% and 65% and 70% and 75% and 80% and 85% | –
414011 (antisense e[5mC]*eG*d[5mC]*dG*dA*dT*d[5mC]*dT*dG*dG*dT*dA*d[5mC]*d[5mC]*dA*eG*eA*eA*eG*eG) [compound 414011] | 85 | 60% and 65% and 70% and 75% and 80% and 85% | –
414012 (antisense eG*eG*d[5mC]*dG*d[5mC]*dG*dA*dT*d[5mC]*dT*dG*dG*dT*dA*d[5mC]*e[5mC]*eA*eG*eA*eA) [compound 414012] | 87 | 60% and 65% and 70% and 75% and 80% and 85% | –

Substance | % inhibition [1] [%] | inhibition of a TGF-beta1 mRNA | % inhibition (gapmers targeted to SEQ ID NO: 2) [%]
414013 (antisense eT*eG*dG*dG*d[5mC]*dG*d[5mC]*dG*dA*dT*d[5mC]*dT*dG*dG*dT*eA*e[5mC]*e[5mC]*eA*eG) [compound 414013] | 90 | 60% and 65% and 70% and 75% and 80% and 85% and 90% | –
414014 (antisense eG*eA*dT*dG*dG*dG*d[5mC]*dG*d[5mC]*dG*dA*dT*d[5mC]*dT*dG*eG*eT*eA*e[5mC]*e[5mC]) [compound 414014] | 89 | 60% and 65% and 70% and 75% and 80% and 85% | –
414015 (antisense e[5mC]*e[5mC]*dT*dA*dG*dA*dT*dG*dG*dG*d[5mC]*dG*d[5mC]*dG*dA*eT*e[5mC]*eT*eG*eG) [compound 414015] | 83 | 60% and 65% and 70% and 75% and 80% | –
414016 (antisense eA*eA*d[5mC]*d[5mC]*dT*dA*dG*dA*dT*dG*dG*dG*d[5mC]*dG*d[5mC]*eG*eA*eT*e[5mC]*eT) [compound 414016] | 78 | 60% and 65% and 70% and 75% | –
414017 (antisense eA*eT*dA*dA*d[5mC]*d[5mC]*dT*dA*dG*dA*dT*dG*dG*dG*d[5mC]*eG*e[5mC]*eG*eA*eT) [compound 414017] | 77 | 60% and 65% and 70% and 75% | –
414018 (antisense eA*eA*dA*dT*dA*dA*d[5mC]*d[5mC]*dT*dA*dG*dA*dT*dG*dG*eG*e[5mC]*eG*e[5mC]*eG) [compound 414018] | 82 | 60% and 65% and 70% and 75% and 80% | –
414019 (antisense eG*eG*dA*dA*dA*dT*dA*dA*d[5mC]*d[5mC]*dT*dA*dG*dA*dT*eG*eG*eG*e[5mC]*eG) [compound 414019] | 78 | 60% and 65% and 70% and 75% | –
414020 (antisense eG*eG*dA*dG*dG*d[5mC]*d[5mC]*d[5mC]*d[5mC]*dG*d[5mC]*d[5mC]*d[5mC]*d[5mC]*dT*eG*e[5mC]*eA*eG*eG) [compound 414020] | 0 | – | –
414021 (antisense eT*eG*dT*dA*d[5mC]*dA*dG*dG*dG*d[5mC]*dG*dA*dG*d[5mC]*dA*e[5mC]*eG*eG*e[5mC]*e[5mC]) [compound 414021] | – | 60% and 65% and 70% | 74
414023 (antisense eT*e[5mC]*dG*dG*dG*d[5mC]*dT*d[5mC]*d[5mC]*dG*dG*dT*dT*d[5mC]*dT*eG*e[5mC]*eA*e[5mC]*eT) [compound 414023] | 78 | 60% and 65% and 70% and 75% | –
414024 (antisense eG*e[5mC]*dT*d[5mC]*dG*dG*dG*d[5mC]*dT*d[5mC]*d[5mC]*dG*dG*dT*dT*e[5mC]*eT*eG*e[5mC]*eA) [compound 414024] | 83 | 60% and 65% and 70% and 75% and 80% | –
414025 (antisense eA*eG*dG*d[5mC]*dT*d[5mC]*dG*dG*dG*d[5mC]*dT*d[5mC]*d[5mC]*dG*dG*eT*eT*e[5mC]*eT*eG) [compound 414025] | 79 | 60% and 65% and 70% and 75% | –
414026 (antisense e[5mC]*e[5mC]*dT*d[5mC]*dA*dG*dG*d[5mC]*dT*d[5mC]*dG*dG*dG*d[5mC]*dT*e[5mC]*e[5mC]*eG*eG*eT) [compound 414026] | 82 | 60% and 65% and 70% and 75% and 80% | –
414027 (antisense eG*eG*d[5mC]*d[5mC]*dT*d[5mC]*dA*dG*dG*d[5mC]*dT*d[5mC]*dG*dG*dG*e[5mC]*eT*e[5mC]*e[5mC]*eG) [compound 414027] | 84 | 60% and 65% and 70% and 75% and 80% | –
414028 (antisense e[5mC]*e[5mC]*dA*dT*dT*dA*dG*d[5mC]*dA*d[5mC]*dG*d[5mC]*dG*dG*dG*eT*eG*eA*e[5mC]*e[5mC]) [compound 414028] | 75 | 60% and 65% and 70% and 75% | –
